Where two headings read alike, the source gives them in different places.
Assay: Solubility assessment: visual, by final volume of water added until the sample is completely dissolved
Description: Solubility indicates the result of measurement based on the final volume of water added to a sample when it is visually confirmed that the sample is completely dissolved by adding water to the sample. The solubility of the actual sample may be higher than the measured solubility. Solubility was measured based on the final volume of water added to a sample when it was visually confirmed that the sample was completely dissolved by adding water to the sample.

[1] = in water, visual complete dissolution, actual solubility may be higher than measured

CC(C)C(=O)N([C@H]1C[C@@H](C(=O)N2CCOCC2)N(C(=O)[C@@H]2CN(C(C)(C)C)C[C@H]2c2ccc(Cl)cc2)C1)[C@H]1CC[C@@H](C)CC1.O=S(=O)(O)c1ccccc1 [Example 2, N-((3S,5S)-1-((3S,4R)-1-(tert-butyl)-4-(4-chlorophenyl)pyrrolidine-3-carbonyl)-5-(morpholine-4-carbonyl)pyrrolidin-3-yl)-N-((1 s,4R)-4-methylcyclohexyl)isobutyramide benzene sulfonate]
solubility [1]: more than 1 mg/mL

CC(O)C(=O)O.CC1CCC(N(C(=O)C(C)C)[C@H]2C[C@@H](C(=O)N3CCOCC3)N(C(=O)[C@@H]3CN(C(C)(C)C)C[C@H]3c3ccc(Cl)cc3)C2)CC1 (stereo partly drawn) [Example 1, N-((3S,5S)-1-((3S,4R)-1-(tert-butyl)-4-(4-chlorophenyl)pyrrolidine-3-carbonyl)-5-(morpholine-4-carbonyl)pyrrolidin-3-yl)-N-((1 s,4R)-4-methylcyclohexyl)isobutyramide lactate]
solubility [1]: more than 24 mg/mL

CC(C)C(=O)N([C@H]1C[C@@H](C(=O)N2CCOCC2)N(C(=O)[C@@H]2CN(C(C)(C)C)C[C@H]2c2ccc(Cl)cc2)C1)[C@H]1CC[C@@H](C)CC1.Cc1ccc(S(=O)(=O)O)cc1 [Example 3, N-((3S,5S)-1-((3S,4R)-1-(tert-butyl)-4-(4-chlorophenyl)pyrrolidine-3-carbonyl)-5-(morpholine-4-carbonyl)pyrrolidin-3-yl)-N-((1 s,4R)-4-methylcyclohexyl)isobutyramide toluene sulfonate]
solubility: more than 10 mg/mL

Reference: patent US20240217954A1, “CRYSTAL FORM IV OF ORGANIC ACID SALTS OF MELANOCORTIN RECEPTOR AGONIST COMPOUND, AND PREPARATION METHOD THEREOF” (LG CHEM, LTD., priority 2021, published 2024)
